In brackets after ≈: the same amount, converted by molar mass. Like-named read-outs stand apart in the source and are kept apart here.
What was measured:
[1] = system: S. aureus (MRSA); test: cefoxitin Etest susceptibility testing (MIC), MRSA; assay type: cell-based, Staphylococcus aureus
[2] = system: S. aureus (MSSA); test: cefoxitin Etest susceptibility testing (MIC), MSSA; assay type: cell-based, Staphylococcus aureus
[3] = system: MR-CNS; test: cefoxitin Etest susceptibility testing (MIC), MR-CNS; assay type: cell-based, coagulase-negative staphylococci
[4] = system: MS-CNS; test: cefoxitin Etest susceptibility testing (MIC), MS-CNS; assay type: cell-based, coagulase-negative staphylococci

SMILES: CO[C@@]1(NC(=O)Cc2cccs2)C(=O)N2C(C(=O)O)=C(COC(N)=O)CS[C@@H]21 [cefoxitin]
- MIC ([1]; Staphylococcus aureus, ATCC 33591 / MRSA, cefoxitin Etest, Reference (ATCC 33591), SCCmec type III, read-out: MIC): ≥ 256 mg/L
- MIC ([1]; Staphylococcus aureus, ATCC 33591 / MRSA, cefoxitin, strain 2, MRSA ATCC 33591, SCCmec III, read-out: MIC Etest): ≥ 256 mg/L
- MIC ([1]; Staphylococcus aureus, ATCC 43300 / MRSA, cefoxitin Etest, Reference (ATCC 43300), SCCmec type II, read-out: MIC): 128 mg/L (≈ 299 µM)
- MIC ([1]; Staphylococcus aureus, ATCC 43300 / MRSA, cefoxitin, strain 39, MRSA ATCC 43300, SCCmec II, read-out: MIC Etest): 128 mg/L (≈ 299 µM)
- MIC ([1]; Staphylococcus aureus, MRSA / NCTC 10422, cefoxitin Etest, Reference (NCTC10422), SCCmec type Ib, read-out: MIC): ≥ 256 mg/L
- MIC ([1]; Staphylococcus aureus, MRSA / USA300, cefoxitin Etest, Reference (USA300), SCCmec type IV, read-out: MIC): 48 mg/L (≈ 112 µM)
- MIC ([1]; Staphylococcus aureus, MRSA / USA300, cefoxitin, strain 886, MRSA USA300, SCCmec IV, read-out: MIC Etest): 48 mg/L (≈ 112 µM)
- MIC ([1]; Staphylococcus aureus, MRSA / USA500, cefoxitin Etest, Reference (USA500), SCCmec type IV, read-out: MIC): 48 mg/L (≈ 112 µM)
- MIC ([1]; Staphylococcus aureus, MRSA, cefoxitin Etest, Reference (Clinical COL), SCCmec type I, read-out: MIC): ≥ 256 mg/L
- MIC ([1]; Staphylococcus aureus, MRSA, cefoxitin Etest, Reference (Clinical EU), SCCmec type Ia, read-out: MIC): ≥ 256 mg/L
- MIC ([1]; Staphylococcus aureus, MRSA, cefoxitin Etest, Reference (DK, SSI), SCCmec type IIIa, read-out: MIC): ≥ 256 mg/L
- MIC ([1]; Staphylococcus aureus, MRSA, cefoxitin Etest, Reference (DK, SSI), SCCmec type V, read-out: MIC): 12 mg/L (≈ 28.1 µM)
- MIC ([1]; Staphylococcus aureus, MRSA, cefoxitin, strain 9, MRSA EU, SCCmec I, read-out: MIC Etest): ≥ 256 mg/L
- MIC ([1]; Staphylococcus aureus, MRSA, cefoxitin, strain 11, MRSA EU, SCCmec II, read-out: MIC Etest): ≥ 256 mg/L
- MIC ([1]; Staphylococcus aureus, MRSA, cefoxitin, strain 13, MRSA, SCCmec IIIa, read-out: MIC Etest): ≥ 256 mg/L
- MIC ([1]; Staphylococcus aureus, MRSA, cefoxitin, strain 306, MRSA DK, SCCmec V, read-out: MIC Etest): 12 mg/L (≈ 28.1 µM)
- MIC ([1]; Staphylococcus aureus, MRSA, cefoxitin, strain 320, MRSA clinical DK, SCCmec IV, read-out: MIC Etest): ≥ 256 mg/L
- MIC ([1]; Staphylococcus aureus, MRSA, cefoxitin, strain 1468, MRSA COL, SCCmec I, read-out: MIC Etest): ≥ 256 mg/L
- MIC ([1]; cefoxitin Etest, strain 2, MRSA, Reference (ATCC 33591), type III): ≧256
- MIC ([1]; cefoxitin Etest, strain 9, MRSA, Reference EU, type I): ≧256
- MIC ([1]; cefoxitin Etest, strain 10, MRSA, Reference EU, type Ia): ≧256
- MIC ([1]; cefoxitin Etest, strain 11, MRSA, Reference EU, type II): ≧256
- MIC ([1]; cefoxitin Etest, strain 12, MRSA, Reference EU, type III): ≧256
- MIC ([1]; cefoxitin Etest, strain 13, MRSA, Reference EU, type IIIa): ≧256
- MIC ([1]; cefoxitin Etest, strain 15, MRSA, Clinical DK, type IV/ST80): 48 mg/L (≈ 112 µM)
- MIC ([1]; cefoxitin Etest, strain 39, MRSA, Reference (ATCC 43300), type II (EVIGENE)): 128 mg/L (≈ 299 µM)
- MIC ([1]; cefoxitin Etest, strain 295, MRSA, Reference DK, type IA): ≧256
- MIC ([1]; cefoxitin Etest, strain 297, MRSA, Reference DK, type IA, EVIGENE IV): 48 mg/L (≈ 112 µM)
- MIC ([1]; cefoxitin Etest, strain 298, MRSA, Reference DK, type II): ≧256
- MIC ([1]; cefoxitin Etest, strain 299, MRSA, Reference DK, type II): ≧256
- MIC ([1]; cefoxitin Etest, strain 300, MRSA, Reference DK, type II): ≧256
- MIC ([1]; cefoxitin Etest, strain 302, MRSA, Reference DK, type IIIA): ≧256
- MIC ([1]; cefoxitin Etest, strain 303, MRSA, Reference DK, type III): ≧256
- MIC ([1]; cefoxitin Etest, strain 304, MRSA, Reference DK, type IV): 48 mg/L (≈ 112 µM)
- MIC ([1]; cefoxitin Etest, strain 305, MRSA, Reference DK, type III): ≧256
- MIC ([1]; cefoxitin Etest, strain 306, MRSA, Reference DK, type V): 12 mg/L (≈ 28.1 µM)
- MIC ([1]; cefoxitin Etest, strain 307, MRSA, Reference DK, type IV): 48 mg/L (≈ 112 µM)
- MIC ([1]; cefoxitin Etest, strain 320, MRSA, Clinical DK, type IV (EVIGENE)): ≧256
- MIC ([1]; cefoxitin Etest, strain 321, MRSA, Clinical DK, type V (EVIGENE)): 96 mg/L (≈ 225 µM)
- MIC ([1]; cefoxitin Etest, strain 460, MRSA, Reference, Tokyo, type V): 12 mg/L (≈ 28.1 µM)
- MIC ([1]; cefoxitin Etest, strain 463, MRSA, Reference (NCTC10422), type Ib): ≧256
- MIC ([1]; cefoxitin Etest, strain 557, MRSA, Reference (USA300), type IV): 64 mg/L (≈ 150 µM)
- MIC ([1]; cefoxitin Etest, strain 559, MRSA, Reference (USA300), type IV): ≧256
- MIC ([1]; cefoxitin Etest, strain 560, MRSA, Reference (USA500), type IV): 48 mg/L (≈ 112 µM)
- MIC ([1]; cefoxitin Etest, strain 797, MRSA, Clinical DK, type II (EVIGENE)): 64 mg/L (≈ 150 µM)
- MIC ([1]; cefoxitin Etest, strain 801, MRSA, Clinical DK, type II (EVIGENE)): ≧256
- MIC ([1]; cefoxitin Etest, strain 812, MRSA, Clinical DK, type II (EVIGENE)): ≧256
- MIC ([1]; cefoxitin Etest, strain 886, MRSA, Reference (FPR3757, USA300), type IV): 48 mg/L (≈ 112 µM)
- MIC ([1]; cefoxitin Etest, strain 920, MRSA, Clinical DK, type I (EVIGENE)): ≧256
- MIC ([1]; cefoxitin Etest, strain 924, MRSA, Clinical DK, type IV (EVIGENE)): 96 mg/L (≈ 225 µM)
- MIC ([1]; cefoxitin Etest, strain 926, MRSA, Clinical DK, type IV (EVIGENE)): 48 mg/L (≈ 112 µM)
- MIC ([1]; cefoxitin Etest, strain 927, MRSA, Clinical DK, type IV): 24 mg/L (≈ 56.1 µM)
- MIC ([1]; cefoxitin Etest, strain 931, MRSA, Clinical DK, type III (EVIGENE)): ≧256
- MIC ([1]; cefoxitin Etest, strain 1184, MRSA, Reference (ATCC BAA-1708), type II (EVIGENE)): 96 mg/L (≈ 225 µM)
- MIC ([1]; cefoxitin Etest, strain 1468, MRSA, Reference (COL), type I): ≧256
- MIC ([2]; Staphylococcus aureus, ATCC 11632 / MSSA, cefoxitin Etest, MSSA Reference (ATCC 11632), read-out: MIC): 3 mg/L (≈ 7.02 µM)
- MIC ([2]; Staphylococcus aureus, ATCC 25923 / MSSA, cefoxitin Etest, MSSA Reference (ATCC 25923), read-out: MIC): 3 mg/L (≈ 7.02 µM)
- MIC ([2]; Staphylococcus aureus, ATCC 25923 / MSSA, cefoxitin, strain 155, MSSA ATCC 25923, read-out: MIC Etest): 3 mg/L (≈ 7.02 µM)
- MIC ([2]; Staphylococcus aureus, ATCC 29213 / MSSA, cefoxitin Etest, MSSA Reference (ATCC 29213), read-out: MIC): 4 mg/L (≈ 9.36 µM)
- MIC ([2]; Staphylococcus aureus, ATCC 29213 / MSSA, cefoxitin, strain 156, MSSA ATCC 29213, read-out: MIC Etest): 4 mg/L (≈ 9.36 µM)
- MIC ([2]; Staphylococcus aureus, cefoxitin, MSSA (n = 15), read-out: MIC Etest): 3 to 4 mg/L (≈ 7.02 to 9.36 µM)
- MIC ([2]; cefoxitin Etest, strain 1, MSSA, Reference (ATCC 6538)): 3 mg/L (≈ 7.02 µM)
- MIC ([2]; cefoxitin Etest, strain 21, MSSA, Clinical EU): 4 mg/L (≈ 9.36 µM)
- MIC ([2]; cefoxitin Etest, strain 22, MSSA, Clinical DK): 4 mg/L (≈ 9.36 µM)
- MIC ([2]; cefoxitin Etest, strain 23, MSSA, Clinical DK): 3 mg/L (≈ 7.02 µM)
- MIC ([2]; cefoxitin Etest, strain 24, MSSA, Clinical DK): 4 mg/L (≈ 9.36 µM)
- MIC ([2]; cefoxitin Etest, strain 26, MSSA, Clinical DK): 4 mg/L (≈ 9.36 µM)
- MIC ([2]; cefoxitin Etest, strain 54, MSSA, Clinical EU): 4 mg/L (≈ 9.36 µM)
- MIC ([2]; cefoxitin Etest, strain 117, MSSA, Reference (ATCC 11632)): 3 mg/L (≈ 7.02 µM)
- MIC ([2]; cefoxitin Etest, strain 155, MSSA, Reference (ATCC 25923)): 3 mg/L (≈ 7.02 µM)
- MIC ([2]; cefoxitin Etest, strain 156, MSSA, Reference (ATCC 29213)): 4 mg/L (≈ 9.36 µM)
- MIC ([3]; strain 4, MR-CNS, S. epidermidis, Reference (ATCC 51625)): 32 mg/L (≈ 74.9 µM)
- MIC ([3]; strain 154, MR-CNS, S. saccharolyticus, Reference (ATCC 14953)): ≧256
- MIC ([3]; strain 350, MR-CNS, S. epidermidis, Reference): ≧256
- MIC ([3]; strain 351, MR-CNS, S. warneri, Reference DK): 192 mg/L (≈ 449 µM)
- MIC ([3]; strain 352, MR-CNS, S. epidermidis, Reference DK): 256 mg/L (≈ 599 µM)
- MIC ([3]; strain 353, MR-CNS, S. hominis, Reference DK): 64 mg/L (≈ 150 µM)
- MIC ([3]; strain 408, MR-CNS, Clinical DK): ≧256
- MIC ([3]; strain 412, MR-CNS, Clinical DK): ≧256
- MIC ([3]; strain 414, MR-CNS, Clinical DK): 256 mg/L (≈ 599 µM)
- MIC ([4]; cefoxitin Etest, strain 629, MS-CNS, S. epidermidis, Reference (ATCC 14990)): 1.5 mg/L (≈ 3.51 µM)
- MIC ([4]; cefoxitin, MS-CNS (n = 5), read-out: MIC Etest): 1.5 mg/L (≈ 3.51 µM)

Reference: US20160257997A1, “METHODS FOR WHOLE-CELL ANALYSIS OF GRAM-POSITIVE BACTERIA” (AdvanDx, Inc., priority 2009, published 2016)
